Data taken from US20110053773A1, “METHODS OF IMPROVING NUTRITIONAL VALUE OF PLANTS” (UNIVERSITY OF TENNESSEE RESEARCH FOUNDATION, priority 2009, published 2011).

Columns and labels:
kale 'Red Russian' [1] = test: Visual injury of kale after insecticide, fungicide, PGRs, safeners (Example 4)
Protocol: (§1) Greenhouse and laboratory studies were conducted to ascertain the tolerance and nutritional quality differences following postemergence applications of the insecticide chlorpyrifos, the fungicide chlorothalonil, the PGRs mepiquat-chloride and paclobutrazol, and the safeners napthalic anhydride and isoxadifen-ethyl on kale ‘Red Russian’ and basil ‘Genovese’. Visual injury was rated based on general phytotoxicity, chlorosis, and visual stunting and each measurement was based on a percent scale from 0 to 100 where 0 equals no visual response and 100 equals complete plant death. Kale and basil were both harvested approximately 4 weeks after treatments and plants were pooled over replicates for content analysis of crude protein, crude amino acid content, acid detergent fiber, neutral detergent fiber, total fatty acids, and/or key mineral content (including Na, Ca, P, Mg, K, Fe, Mn, Zn, and Cu). In addition, the amounts of key individual amino acids (aspartic acid, threonine, glutamic acid, proline, glycine, cysteine, valine, leucine, isoleucine, methionine, and lysine) and composite classifications of fatty acid (saturated fatty acids, monounsaturated fatty acids, polyunsaturated fatty acids) were also analyzed from these sub-samples for kale (Tables 10-14).

basil 'Genovese' = test: Visual injury of basil after insecticide, fungicide, PGRs, safeners (Example 4)
Protocol: as §1

kale 'Red Russian' [2] = test: Content analysis of kale: protein, amino acids, fiber, fatty acids, minerals (Example 4, Tables 12-14); type: in vivo; conditions: 28 DA-A
Protocol: as §1

[3] = 7 DA-A, rates g ai/ha: chlropyrifos 1120, chlorothalonil 2630, paclobutrazol 3.23, mepiquat-chloride 12.3, + NIS 0.25 % v/v
[4] = 7 DA-A, rates g ai/ha: chlropyrifos 3370, chlorothalonil 7900, paclobutrazol 9.7, mepiquat-chloride 37, + NIS 0.25 % v/v
[5] = 14 DA-A, rates g ai/ha: chlropyrifos 1120, chlorothalonil 2630, paclobutrazol 3.23, mepiquat-chloride 12.3, + NIS 0.25 % v/v
[6] = 14 DA-A, rates g ai/ha: chlropyrifos 3370, chlorothalonil 7900, paclobutrazol 9.7, mepiquat-chloride 37, + NIS 0.25 % v/v
[7] = 28 DA-A, rates g ai/ha: chlropyrifos 1120, chlorothalonil 2630, paclobutrazol 3.23, mepiquat-chloride 12.3, + NIS 0.25 % v/v
[8] = 28 DA-A, rates g ai/ha: chlropyrifos 3370, chlorothalonil 7900, paclobutrazol 9.7, mepiquat-chloride 37, + NIS 0.25 % v/v
[9] = 7 DA-A, rates g ai/ha: chlropyrifos 1120, chlorothalonil 2630, paclobutrazol 3.23, mepiquat-chloride 12.3, Isoxadifen 8, Napthalic anhydride 264, + NIS 0.25 % v/v
[10] = 7 DA-A, rates g ai/ha: chlropyrifos 3370, chlorothalonil 7900, paclobutrazol 9.7, mepiquat-chloride 37, Isoxadifen 16, Napthalic anhydride 527, + NIS 0.25 % v/v
[11] = 14 DA-A, rates g ai/ha: chlropyrifos 1120, chlorothalonil 2630, paclobutrazol 3.23, mepiquat-chloride 12.3, Isoxadifen 8, Napthalic anhydride 264, + NIS 0.25 % v/v
[12] = 14 DA-A, rates g ai/ha: chlropyrifos 3370, chlorothalonil 7900, paclobutrazol 9.7, mepiquat-chloride 37, Isoxadifen 16, Napthalic anhydride 527, + NIS 0.25 % v/v
[13] = 28 DA-A, rates g ai/ha: chlropyrifos 1120, chlorothalonil 2630, paclobutrazol 3.23, mepiquat-chloride 12.3, Isoxadifen 8, Napthalic anhydride 264, + NIS 0.25 % v/v
[14] = 28 DA-A, rates g ai/ha: chlropyrifos 3370, chlorothalonil 7900, paclobutrazol 9.7, mepiquat-chloride 37, Isoxadifen 16, Napthalic anhydride 527, + NIS 0.25 % v/v
[15] = first-listed rate g ai/ha: chlropyrifos ###, chlorothalonil ###, paclobutrazol 3.2, mepiquat-chloride 12, + NIS 0.3 % v/v
[16] = rates g ai/ha: chlropyrifos 1120, chlorothalonil 2630, paclobutrazol 3.23, mepiquat-chloride 12.3, + NIS 0.25 % v/v

Structure (SMILES): CC(C)(C)[C@@H](O)[C@@H](Cc1ccc(Cl)cc1)n1cncn1 (racemic) [paclobutrazol]
- Phytotoxicity Chlorosis (kale 'Red Russian' [1]; [3]): 1%
- Phytotoxicity General (kale 'Red Russian' [1]; [3]): 10%
- Phytotoxicity Stunting (kale 'Red Russian' [1]; [3]): 6%
- Phytotoxicity Chlorosis (kale 'Red Russian' [1]; [4]): 0%
- Phytotoxicity General (kale 'Red Russian' [1]; [4]): 9%
- Phytotoxicity Stunting (kale 'Red Russian' [1]; [4]): 11%
- Phytotoxicity Chlorosis (kale 'Red Russian' [1]; [5]): 10%
- Phytotoxicity General (kale 'Red Russian' [1]; [5]): 3%
- Phytotoxicity Stunting (kale 'Red Russian' [1]; [5]): 19%
- Phytotoxicity Chlorosis (kale 'Red Russian' [1]; [6]): 16%
- Phytotoxicity General (kale 'Red Russian' [1]; [6]): 6%
- Phytotoxicity Stunting (kale 'Red Russian' [1]; [6]): 28%
- Phytotoxicity Chlorosis (kale 'Red Russian' [1]; [7]): 3%
- Phytotoxicity General (kale 'Red Russian' [1]; [7]): 3%
- Phytotoxicity Stunting (kale 'Red Russian' [1]; [7]): 21%
- Phytotoxicity Chlorosis (kale 'Red Russian' [1]; [8]): 0%
- Phytotoxicity General (kale 'Red Russian' [1]; [8]): 4%
- Phytotoxicity Stunting (kale 'Red Russian' [1]; [8]): 19%
- Phytotoxicity Chlorosis (basil 'Genovese'; [9]): 8%
- Phytotoxicity General (basil 'Genovese'; [9]): 3%
- Phytotoxicity Stunting (basil 'Genovese'; [9]): 3%
- Phytotoxicity Chlorosis (basil 'Genovese'; [10]): 5%
- Phytotoxicity General (basil 'Genovese'; [10]): 3%
- Phytotoxicity Stunting (basil 'Genovese'; [10]): 2%
- Phytotoxicity Chlorosis (basil 'Genovese'; [11]): 5%
- Phytotoxicity General (basil 'Genovese'; [11]): 0%
- Phytotoxicity Stunting (basil 'Genovese'; [11]): 7%
- Phytotoxicity Chlorosis (basil 'Genovese'; [12]): 7%
- Phytotoxicity General (basil 'Genovese'; [12]): 0%
- Phytotoxicity Stunting (basil 'Genovese'; [12]): 5%
- Phytotoxicity Chlorosis (basil 'Genovese'; [13]): 3%
- Phytotoxicity General (basil 'Genovese'; [13]): 5%
- Phytotoxicity Stunting (basil 'Genovese'; [13]): 8%
- Phytotoxicity Chlorosis (basil 'Genovese'; [14]): 7%
- Phytotoxicity General (basil 'Genovese'; [14]): 2%
- Phytotoxicity Stunting (basil 'Genovese'; [14]): 2%
- Alanine, Percent Increase over the Untreated Check (on a % dry matter basis) (kale 'Red Russian' [2]; [15]): −9 % check
- Aspartic acid, Percent Increase over the Untreated Check (on a % dry matter basis) (kale 'Red Russian' [2]; [15]): −9 % check
- Cysteine, Percent Increase over the Untreated Check (on a % dry matter basis) (kale 'Red Russian' [2]; [15]): −6 % check
- Glutamic acid, Percent Increase over the Untreated Check (on a % dry matter basis) (kale 'Red Russian' [2]; [15]): −5 % check
- Glycine, Percent Increase over the Untreated Check (on a % dry matter basis) (kale 'Red Russian' [2]; [15]): −12 % check
- Iso-leucine, Percent Increase over the Untreated Check (on a % dry matter basis) (kale 'Red Russian' [2]; [15]): −6 % check
- Leucine, Percent Increase over the Untreated Check (on a % dry matter basis) (kale 'Red Russian' [2]; [15]): −7 % check
- Lysine, Percent Increase over the Untreated Check (on a % dry matter basis) (kale 'Red Russian' [2]; [15]): −8 % check
- Methionine, Percent Increase over the Untreated Check (on a % dry matter basis) (kale 'Red Russian' [2]; [15]): −13 % check
- Proline, Percent Increase over the Untreated Check (on a % dry matter basis) (kale 'Red Russian' [2]; [15]): −4 % check
- Threonine, Percent Increase over the Untreated Check (on a % dry matter basis) (kale 'Red Russian' [2]; [15]): −9 % check
- Total Amino acids, Percent Increase over the Untreated Check (on a % dry matter basis) (kale 'Red Russian' [2]; [15]): −8 % check
- Total Protein, Percent Increase over the Untreated Check (on a % dry matter basis) (kale 'Red Russian' [2]; [15]): 0 % check
- Valine, Percent Increase over the Untreated Check (on a % dry matter basis) (kale 'Red Russian' [2]; [15]): −6 % check
- ADF, Percent Increase Over the Untreated Check (on a % dry matter basis) (kale 'Red Russian' [2]; [16]): 11 % check
- Calcium, Percent Increase Over the Untreated Check (on a % dry matter basis) (kale 'Red Russian' [2]; [16]): 11 % check
- Copper, Percent Increase Over the Untreated Check (on a % dry matter basis) (kale 'Red Russian' [2]; [16]): 12 % check
- Iron, Percent Increase Over the Untreated Check (on a % dry matter basis) (kale 'Red Russian' [2]; [16]): −3 % check
- Magnesium, Percent Increase Over the Untreated Check (on a % dry matter basis) (kale 'Red Russian' [2]; [16]): 8 % check
- Manganese, Percent Increase Over the Untreated Check (on a % dry matter basis) (kale 'Red Russian' [2]; [16]): 10 % check
- NDF, Percent Increase Over the Untreated Check (on a % dry matter basis) (kale 'Red Russian' [2]; [16]): −3 % check
- Phosphorous, Percent Increase Over the Untreated Check (on a % dry matter basis) (kale 'Red Russian' [2]; [16]): 6 % check
